Experimental data published in US20260265227A1, “AMIDE PRODRUGS AND USES THEREOF” (Autobahn Therapeutics, Inc., priority 2022, published 2026).

Target: T1, recombinant human FAAH (rhFAAH) (Homo sapiens, UniProt O00519)
T1 construct: purchased Cayman Chemical (Ann Arbor, MI, USA)
T1 sequence (O00519 1-579): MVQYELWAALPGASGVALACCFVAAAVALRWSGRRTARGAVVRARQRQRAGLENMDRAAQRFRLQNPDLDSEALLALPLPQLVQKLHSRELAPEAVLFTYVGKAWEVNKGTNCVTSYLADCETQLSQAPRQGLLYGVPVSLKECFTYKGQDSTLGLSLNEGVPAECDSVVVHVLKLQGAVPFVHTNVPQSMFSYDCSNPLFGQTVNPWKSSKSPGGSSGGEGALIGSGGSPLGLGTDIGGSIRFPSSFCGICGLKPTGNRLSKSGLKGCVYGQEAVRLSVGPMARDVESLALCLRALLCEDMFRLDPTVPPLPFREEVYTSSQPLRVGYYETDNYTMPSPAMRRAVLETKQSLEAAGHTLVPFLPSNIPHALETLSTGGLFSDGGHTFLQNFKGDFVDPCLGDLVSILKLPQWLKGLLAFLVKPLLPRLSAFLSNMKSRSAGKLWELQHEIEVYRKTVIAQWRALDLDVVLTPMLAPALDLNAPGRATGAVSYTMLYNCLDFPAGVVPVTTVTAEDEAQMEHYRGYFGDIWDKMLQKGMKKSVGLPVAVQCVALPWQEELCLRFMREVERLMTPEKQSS
Assay: FAAH Substrate Evaluation (formation of acid metabolite from amide prodrug)
Assay type: biochemical
Conditions: 0.5 ng/μL rhFAAH, 1 μM test compound, Tris-EDTA buffer pH 8.0, 0.1% BSA, room temperature, 0-60 minutes, LC-MS/MS
Description: Purified recombinant human FAAH (rhFAAH) was purchased from Cayman Chemical (Ann Arbor, MI, USA). The total volume for each incubation was 400 μL containing a final 0.5 ng/μL rhFAAH, 1 μM test compound, 1.25% ethanol or 1 μM PF-3845 (FAAH inhibitor), and 0.1% bovine serum albumin in Tris-EDTA buffer at pH 8.0). The positive control was LL-341001. The incubation was conducted at the room temperature. At 0, 5, 15, 30 and 60 minutes, an aliquot of 30 μL reaction mixtures was removed and mixed with 300 μL acetonitrile containing 5 ng/mL terfenadine and 10 ng/ml tolbutamide as internal standards to quench the reaction. The resulting mixture was centrifuged at 4000 rpm, 4° C. for 15 minutes, and 100 μL supernatant was ready for LC-MS/MS analysis to measure the formation of acid metabolite.
Acquity Ultra Performance LC system from Waters was used for sample analysis. The chromatography was performed on a reverse phase Kinetex 2.6 μm C18 column, 2.1×30 mm, 100 Å. The mobile phase A comprised of 0.1% formic acid in water and mobile phase B comprised of 0.1% formic acid in acetonitrile with a 2-min run time at the flow rate of 0.8 mL/min for the acid metabolite from positive control or a 1.5 min run time at the flow rate of 0.9 mL/min for the acid metabolite of test compounds. The mass spectrometer (API-5500 and API Q Trap 4000 Applied Biosystems/MDS SCIEX Instruments, Framingham, MA, USA) was operated under ESI positive or negative ion MRM mode.
The formation of acid metabolite was monitored and quantified using one calibration point of 1 μM. The observed rate constant (ke) for the acid metabolite formation was calculated by plotting the metabolite concentration versus time of incubation with the slope being ke and is shown in Table 1.

Row | Compound | ke (observed rate constant for the acid metabolite formation)
1 | C[C@@H](CO)NC(=O)C1CN(CC2=Cc3ccc(OCCCC(F)(F)F)cc3C[C@@H]2C)C1 [Compound 2, N—((S)-1-hydroxypropan-2-yl)-1-(((S)-3-methyl-6-(4,4,4-trifluorobutoxy)-3,4-dihydronaphthalen-2-yl)methyl)azetidine-3-carboxamide] | B (ke is less than 1.0 and more than 0)
2 | C[C@H]1Cc2cc(OCCCC(F)(F)F)ccc2C=C1CN1CC(C(=O)Nc2cncnc2)C1 [Compound 3, (S)-1-((3-methyl-6-(4,4,4-trifluorobutoxy)-3,4-dihydronaphthalen-2-yl)methyl)-N-(pyrimidin-5-yl)azetidine-3-carboxamide] | A (ke is more than or equal to 1.0)
3 | C[C@H]1Cc2cc(OCCCC(F)(F)F)ccc2C=C1CN1CC(C(=O)Nc2ccnnc2)C1 [Compound 4, (S)-1-((3-methyl-6-(4,4,4-trifluorobutoxy)-3,4-dihydronaphthalen-2-yl)methyl)-N-(pyridazin-4-yl)azetidine-3-carboxamide] | A (ke is more than or equal to 1.0)
4 | COCCNC(=O)C1CN(CC2=Cc3ccc(OCCCC(F)(F)F)cc3C[C@@H]2C)C1 [Compound 5, (S)—N-(2-methoxyethyl)-1-((3-methyl-6-(4,4,4-trifluorobutoxy)-3,4-dihydronaphthalen-2-yl)methyl)azetidine-3-carboxamide] | A (ke is more than or equal to 1.0)
5 | C[C@H]1Cc2cc(OCCCC(F)(F)F)ccc2C=C1CN1CC(C(=O)NCC(C)(C)C)C1 [Compound 6, (S)-1-((3-methyl-6-(4,4,4-trifluorobutoxy)-3,4-dihydronaphthalen-2-yl)methyl)-N-neopentylazetidine-3-carboxamide] | B (ke is less than 1.0 and more than 0)
6 | CC(C)CNC(=O)C1CN(CC2=Cc3ccc(OCCCC(F)(F)F)cc3C[C@@H]2C)C1 [Compound 7, (S)—N-isobutyl-1-((3-methyl-6-(4,4,4-trifluorobutoxy)-3,4-dihydronaphthalen-2-yl)methyl)azetidine-3-carboxamide] | A (ke is more than or equal to 1.0)
7 | CC[C@@H](C)NC(=O)C1CN(CC2=Cc3ccc(OCCCC(F)(F)F)cc3C[C@@H]2C)C1 [Compound 8, N—((R)-sec-butyl)-1-(((S)-3-methyl-6-(4,4,4-trifluorobutoxy)-3,4-dihydronaphthalen-2-yl)methyl)azetidine-3-carboxamide] | A (ke is more than or equal to 1.0)
8 | C[C@H]1Cc2cc(OCCCC(F)(F)F)ccc2C=C1CN1CC(C(=O)N(C)CC(C)(C)C)C1 [Compound 9, (S)—N-methyl-1-((3-methyl-6-(4,4,4-trifluorobutoxy)-3,4-dihydronaphthalen-2-yl)methyl)-N-neopentylazetidine-3-carboxamide] | C (ke is 0)
9 | CCCNC(=O)C1CN(CC2=Cc3ccc(OCCCC(F)(F)F)cc3C[C@@H]2C)C1 [Compound 10, (S)-1-((3-methyl-6-(4,4,4-trifluorobutoxy)-3,4-dihydronaphthalen-2-yl)methyl)-N-propylazetidine-3-carboxamide] | A (ke is more than or equal to 1.0)
10 | C[C@H]1Cc2cc(OCCCC(F)(F)F)ccc2C=C1CN1CC(C(=O)N(C)C)C1 [Compound 11, (S)—N,N-dimethyl-1-((3-methyl-6-(4,4,4-trifluorobutoxy)-3,4-dihydronaphthalen-2-yl)methyl)azetidine-3-carboxamide] | B (ke is less than 1.0 and more than 0)
11 | CNC(=O)C1CN(CC2=Cc3ccc(OCCCC(F)(F)F)cc3C[C@@H]2C)C1 [Compound 12, (S)—N-methyl-1-((3-methyl-6-(4,4,4-trifluorobutoxy)-3,4-dihydronaphthalen-2-yl)methyl)azetidine-3-carboxamide] | B (ke is less than 1.0 and more than 0)
12 | C[C@H]1Cc2cc(OCCCC(F)(F)F)ccc2C=C1CN1CC(C(=O)Nc2cccnc2)C1 [Compound 13, (S)-1-((3-methyl-6-(4,4,4-trifluorobutoxy)-3,4-dihydronaphthalen-2-yl)methyl)-N-(pyridin-3-yl)azetidine-3-carboxamide] | A (ke is more than or equal to 1.0)
13 | C[C@H](CO)NC(=O)C1CN(CC2=Cc3ccc(OCCCC(F)(F)F)cc3C[C@@H]2C)C1 [Compound 14, N—((R)-1-hydroxypropan-2-yl)-1-(((S)-3-methyl-6-(4,4,4-trifluorobutoxy)-3,4-dihydronaphthalen-2-yl)methyl)azetidine-3-carboxamide] | B (ke is less than 1.0 and more than 0)
14 | C[C@H](O)CNC(=O)C1CN(CC2=Cc3ccc(OCCCC(F)(F)F)cc3C[C@@H]2C)C1 [Compound 15, N—((S)-2-hydroxypropyl)-1-(((S)-3-methyl-6-(4,4,4-trifluorobutoxy)-3,4-dihydronaphthalen-2-yl)methyl)azetidine-3-carboxamide] | B (ke is less than 1.0 and more than 0)
15 | CCCN(C)C(=O)C1CN(CC2=Cc3ccc(OCCCC(F)(F)F)cc3C[C@@H]2C)C1 [Compound 16, (S)—N-methyl-1-((3-methyl-6-(4,4,4-trifluorobutoxy)-3,4-dihydronaphthalen-2-yl)methyl)-N-propylazetidine-3-carboxamide] | C (ke is 0)
16 | CC[C@H](C)NC(=O)C1CN(CC2=Cc3ccc(OCCCC(F)(F)F)cc3C[C@@H]2C)C1 [Compound 17, N—((S)-sec-butyl)-1-(((S)-3-methyl-6-(4,4,4-trifluorobutoxy)-3,4-dihydronaphthalen-2-yl)methyl)azetidine-3-carboxamide] | B (ke is less than 1.0 and more than 0)
17 | COC[C@H](C)NC(=O)C1CN(CC2=Cc3ccc(OCCCC(F)(F)F)cc3C[C@@H]2C)C1 [Compound 18, N—((S)-1-methoxypropan-2-yl)-1-(((S)-3-methyl-6-(4,4,4-trifluorobutoxy)-3,4-dihydronaphthalen-2-yl)methyl)azetidine-3-carboxamide] | B (ke is less than 1.0 and more than 0)
18 | C[C@H]1Cc2cc(OCCCC(F)(F)F)ccc2C=C1CN1CC(C(=O)NCC2CC2)C1 [Compound 19, (S)—N-(cyclopropylmethyl)-1-((3-methyl-6-(4,4,4-trifluorobutoxy)-3,4-dihydronaphthalen-2-yl)methyl)azetidine-3-carboxamide] | A (ke is more than or equal to 1.0)
19 | C[C@H]1Cc2cc(OCCCC(F)(F)F)ccc2C=C1CN1CC(C(=O)NC2CC2)C1 [Compound 20, (S)—N-cyclopropyl-1-((3-methyl-6-(4,4,4-trifluorobutoxy)-3,4-dihydronaphthalen-2-yl)methyl)azetidine-3-carboxamide] | A (ke is more than or equal to 1.0)
20 | C[C@@H](O)CNC(=O)C1CN(CC2=Cc3ccc(OCCCC(F)(F)F)cc3C[C@@H]2C)C1 [Compound 21, N—((R)-2-hydroxypropyl)-1-(((S)-3-methyl-6-(4,4,4-trifluorobutoxy)-3,4-dihydronaphthalen-2-yl)methyl)azetidine-3-carboxamide] | B (ke is less than 1.0 and more than 0)
21 | C[C@H]1Cc2cc(OCCCC(F)(F)F)ccc2C=C1CN1CC(C(=O)NCCCF)C1 [Compound 22, (S)-N-(3-fluoropropyl)-1-((3-methyl-6-(4,4,4-trifluorobutoxy)-3,4-dihydro-naphthalen-2-yl)methyl)azetidine-3-carboxamide] | B (ke is less than 1.0 and more than 0)
22 | C[C@H]1Cc2cc(OCCCC(F)(F)F)ccc2C=C1CN1CC(C(=O)Nc2ccncc2)C1 [Compound 24, (S)-1-((3-methyl-6-(4,4,4-trifluorobutoxy)-3,4-dihydronaphthalen-2-yl)methyl)-N-(pyridin-4-yl) azetidine-3-carboxamide] | A (ke is more than or equal to 1.0)
